According to US11667629B2, “Isoxazole derivative, preparation method therefor, and use thereof” (SICHUAN KELUN-BIOTECH BIOPHARMACEUTICAL CO., LTD., priority 2017, dated 2023):

Experiments:
FXR [1] = molecular target: T1, FXR (Homo sapiens, UniProt Q96RI1); assay: Bile acid receptor FXR coactivator binding assay (LanthaScreen TR-FRET); assay type: biochemical; details: for EC50: TR-FRET coactivator assay, four-parameter fit, read-out: EC50 of the compounds on FXR; for Emax: read-out: Relative activation effect
T1 construct: purchased Invitrogen
Experimental: The Invitrogen⋅LanthaScreen™ TR-FRET Farnesoid X Receptor Coactivator Assay kit was employed to determine the activation effect of the compounds on FXR.
After the receptor was incubated with the test compound at various concentrations at room temperature, the fluorescent-labeled coactivator short peptides and terbium-labeled antibody were added, and the FRET signal was detected after the reaction was complete at room temperature. The group without the receptor protein was employed as a blank, the activation effect (EC50) and maximum activation effect signal value (Emax) of the test compounds on FXR were calculated according to the four-parameter fitting equation: y=E min+(E max−E min)/(1+(x/EC50)^(−Hillslope))

FXR [2] = molecular target: T2, FXR (Homo sapiens, UniProt Q96RI1); assay: Luciferase reporter gene assay (HEK293 cotransfected with FXR and human BSEP luciferase reporter); assay type: cell-based; details: for EC50: HEK293, 18 hours incubation; for Emax: HEK293, maximum activation effect, relative signal percentage, blank well = 100%
T2 construct: expressed in transfected cells; host or cells: HEK293
T2 sequence (Q96RI1 1-486): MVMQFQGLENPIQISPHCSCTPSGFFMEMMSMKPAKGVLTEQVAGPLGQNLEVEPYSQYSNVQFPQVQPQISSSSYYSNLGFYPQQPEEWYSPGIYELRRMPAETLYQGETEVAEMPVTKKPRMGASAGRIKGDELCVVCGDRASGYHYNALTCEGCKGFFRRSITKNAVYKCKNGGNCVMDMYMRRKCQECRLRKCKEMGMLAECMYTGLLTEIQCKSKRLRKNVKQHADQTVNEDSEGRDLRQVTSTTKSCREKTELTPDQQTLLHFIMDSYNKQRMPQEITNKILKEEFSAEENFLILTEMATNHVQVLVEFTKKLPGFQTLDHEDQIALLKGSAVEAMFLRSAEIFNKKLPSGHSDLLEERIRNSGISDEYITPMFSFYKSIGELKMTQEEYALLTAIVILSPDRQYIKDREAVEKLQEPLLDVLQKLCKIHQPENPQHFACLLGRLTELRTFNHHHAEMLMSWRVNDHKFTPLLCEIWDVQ
Experimental: Human embryonic kidney cells HEK293 were cultured in a DMEM medium containing 10% FBS. Plasmids were cotransfected to allow the cells to have over expression of FXR and human BSEP luciferase reporter genes. The transfected cells were digested, resuspended, counted, and plated in a multi-well plate. 10 μL of the test compound at various concentrations was added to the multi-well plate to result in final concentrations of 64 μM, 16 μM, 4 μM, 1 μM, 0.25 μM, 0.0625 μM, 0.0156 μM, 0.0039 μM, 0.000975 μM, 0.000244 μM, 0 μM, and the final concentration of DMSO was 0.5%. After the test compound was incubated with the cells for 18 hours, the Brigh-Glo™ detection reagent was added, and the chemical light unit value (RLU) was detected by a multifunctional automatic microplate reader. Taking the signal value of the blank well (without the test compound) as 100%, the relative signal percentage (%) at each concentration of the test compound was calculated. The SigmaPlot 10 software was employed to fit the EC50 and the maximum activation effect Emax (relative signal percentage) of the test compounds using a four-parameter model.

[3] = Pharmacokinetics (PK) and liver tissue distribution in rats; assay type: in vivo, rat
Experimental: The test compound was administered to male SD rats by intravenous (IV) and by gavage (PO), and the pharmacokinetics and liver tissue distribution characteristics of the test compound were evaluated. The doses of the IV and PO administration were respectively 1 mg/kg and 5 mg/kg. The vehicle for IV was 5% DMSO:5% Solutol:90% physiological saline, and the vehicle for PO was 0.5% MC. Blood and liver were collected at various time points after the IV and PO administration. The blood was treated with EDTA. K2 for anticoagulation, and was centrifuged to obtain a plasma sample; the liver was homogenized and stored at −80° C. The plasma and liver samples were analyzed by LC-MS/MS after being subjected to protein precipitation.
By employing the WinNonlin 6.3 software, the pharmacokinetic parameters were calculated according to a non-compartment model.

[4] = IV, 1 mg/kg, male SD rats, plasma
[5] = PO, 5 mg/kg, male SD rats, blood
[6] = PO, 5 mg/kg, male SD rats, liver

Row | SMILES | EC50 (FXR [1]) [nM] | EC50 (FXR [2]) [nM] | Emax (FXR [2]) [%] | Emax (FXR [1]) [%] | other results
1 | O=C(O)c1cccc(-c2csc(N3CCC(OCc4c(-c5c(Cl)cccc5Cl)noc4C4CC4)CC3)n2)c1 [Compound C1, 3-(2-(4-((5-cyclopropyl-3-(2,6-dichlorophenyl)isoxazol-4-yl)methoxy)piperidin-1-yl)thiazol-4-yl)benzoic acid] | 178 ± 21 | – | – | – | –
2 | O=C(O)c1ccc(-c2csc(N3CCC(OCc4c(-c5c(Cl)cccc5Cl)noc4C4CC4)CC3)n2)cc1 [Compound C2, 4-(2-(4-((5-cyclopropyl-3-(2,6-dichlorophenyl)isoxazol-4-yl)methoxy)piperidin-1-yl)thiazol-4-yl)benzoic acid] | 12 ± 4 | 20 ± 10 | 248 | 101 | AUClast [3, 4]: 2409 ± 108 ng·h/mL; Cmax [3, 4]: 4343 ± 172 ng/mL; AUClast (blood) [3, 5]: 1177 ± 304 ng·h/mL; Cmax (blood) [3, 5]: 252 ± 30 ng/mL; AUClast (liver) [3, 6]: 14941 ± 4276 ng·h/g; Cmax (liver) [3, 6]: 3367 ± 830 ng/g; liver enrichment ([3]; PO, 5 mg/kg, rats, liver versus blood exposure): significant liver enrichment effect
3 | Cn1nc(C(=O)O)cc1-c1ccc(N2CCC(OCc3c(-c4c(Cl)cccc4Cl)noc3C3CC3)CC2)cc1 [Compound C3, 5-(4-(4-((5-cyclopropyl-3-(2,6-dichlorophenyl)isoxazol-4-yl)methoxy)piperidin-1-yl)phenyl)-1-methyl-1H-pyrazole-3-carboxylic acid] | 42 ± 7 | – | – | – | –
4 | Cn1nc(-c2ccc(N3CCC(OCc4c(-c5c(Cl)cccc5Cl)noc4C4CC4)CC3)cc2)cc1C(=O)O [Compound C4, 3-(4-(4-((5-cyclopropyl-3-(2,6-dichlorophenyl)isoxazol-4-yl)methoxy)piperidin-1-yl)phenyl)-1-methyl-1H-pyrazole-5-carboxylic acid] | 10 ± 1 | 40 ± 10 | 255 | 102 | –
5 | Cn1nc(C(=O)O)cc1-c1cccc(N2CCC(OCc3c(-c4c(Cl)cccc4Cl)noc3C3CC3)CC2)c1 [Compound C6, 5-(3-(4-((5-cyclopropyl-3-(2,6-dichlorophenyl)isoxazol-4-yl)methoxy)piperidin-1-yl)phenyl)-1-methyl-1H-pyrazole-3-carboxylic acid] | 206 ± 18 | – | – | – | –
6 | O=C(O)c1ccc(-c2csc(N3[C@@H]4CC[C@H]3C[C@@H](OCc3c(-c5ccccc5OC(F)(F)F)noc3C3CC3)C4)n2)s1 [Compound C35, 5-(2-((1R,3r,5S)-3-((5-cyclopropyl-3-(2-(trifluoromethoxy)phenyl)isoxazol-4-yl)methoxy)-8-azabicyclo[3.2.1]octan-8-yl)thiazol-4-yl)thiophene-2-carboxylic acid] | 13 ± 3 | 91 ± 38 | 378 | 152 | –
7 | Cc1cc(C(=O)O)ccc1-c1csc(N2[C@@H]3CC[C@H]2C[C@@H](OCc2c(-c4c(Cl)cccc4Cl)noc2C2CC2)C3)n1 [Compound C37, 4-(2-((1R,3r,5S)-3-((5-cyclopropyl-3-(2,6-dichlorophenyl)isoxazol-4-yl)methoxy)-8-azabicyclo[3.2.1]octan-8-yl)thiazol-4-yl)-3-methylbenzoic acid] | 15 ± 1 | 6 ± 2 | 411 | 139 | –
8 | O=C(O)c1ccc(-c2csc(N3[C@@H]4CC[C@H]3C[C@@H](OCc3c(-c5ccccc5OC(F)(F)F)noc3C3CC3)C4)n2)cc1 [Compound C41, 4-(2-((1R,3r,5S)-3-((5-cyclopropyl-3-(2-(trifluoromethoxy)phenyl)isoxazol-4-yl)methoxy)-8-azabicyclo[3.2.1]octan-8-yl)thiazol-4-yl)benzoic acid] | – | 58 ± 23 | 252 | – | –
9 | Cc1cc(C(=O)O)ccc1-c1csc(N2[C@@H]3CC[C@H]2C[C@@H](OCc2c(-c4ccccc4OC(F)(F)F)noc2C2CC2)C3)n1 [Compound C42, 4-(2-((1R,3r,5S)-3-((5-cyclopropyl-3-(2-(trifluoromethoxy)phenyl)isoxazol-4-yl)methoxy)-8-azabicyclo[3.2.1]octan-8-yl)thiazol-4-yl)-3-methylbenzoic acid] | – | 33 ± 18 | 320 | – | –
10 | O=C(O)c1ccc(-c2csc(N3[C@@H]4CC[C@H]3C[C@@H](OCc3c(-c5ccccc5OC(F)(F)F)noc3C3CC3)C4)n2)c(F)c1 [Compound C43, 4-(2-((1R,3r,5S)-3-((5-cyclopropyl-3-(2-(trifluoromethoxy)phenyl)isoxazol-4-yl)methoxy)-8-azabicyclo[3.2.1]octan-8-yl)thiazol-4-yl)-3-fluorobenzoic acid] | – | 37 ± 19 | 343 | – | –
11 | O=C(O)c1ccc(-c2csc(N3[C@@H]4CC[C@H]3C[C@@H](OCc3c(-c5ccccc5OC(F)(F)F)noc3C3CC3)C4)n2)cc1F [Compound C44, 4-(2-((1R,3r,5S)-3-((5-cyclopropyl-3-(2-(trifluoromethoxy)phenyl)isoxazol-4-yl)methoxy)-8-azabicyclo[3.2.1]octan-8-yl)thiazol-4-yl)-2-fluorobenzoic acid] | 22 ± 5 | 21 ± 6 | 322 | 137 | –
12 | O=C(O)c1ccc(-c2csc(N3[C@@H]4CC[C@H]3C[C@@H](OCc3c(-c5ccccc5OC(F)(F)F)noc3C3CC3)C4)n2)c(C(F)(F)F)c1 [Compound C45, 4-(2-((1R,3r,5S)-3-((5-cyclopropyl-3-(2-(trifluoromethoxy)phenyl)isoxazol-4-yl)methoxy)-8-azabicyclo[3.2.1]octan-8-yl)thiazol-4-yl)-3-(trifluoromethyl)benzoic acid] | 110 ± 21 | – | – | 113 | –
13 | O=C(O)c1cc(-c2csc(N3[C@@H]4CC[C@H]3C[C@@H](OCc3c(-c5ccccc5OC(F)(F)F)noc3C3CC3)C4)n2)cs1 [Compound C47, 4-(2-((1R,3r,5S)-3-((5-cyclopropyl-3-(2-(trifluoromethoxy)phenyl)isoxazol-4-yl)methoxy)-8-azabicyclo[3.2.1]octan-8-yl)thiazol-4-yl)thiophene-2-carboxylic acid] | – | 19 ± 7 | 370 | – | –
14 | O=C(O)c1csc(-c2csc(N3[C@@H]4CC[C@H]3C[C@@H](OCc3c(-c5ccccc5OC(F)(F)F)noc3C3CC3)C4)n2)c1 [Compound C48, 5-(2-((1R,3r,5S)-3-((5-cyclopropyl-3-(2-(trifluoromethoxy)phenyl)isoxazol-4-yl)methoxy)-8-azabicyclo[3.2.1]octan-8-yl)thiazol-4-yl)thiophene-3-carboxylic acid] | – | 39 ± 17 | 382 | – | –
15 | O=C(O)c1ccc(-c2csc(N3[C@@H]4CC[C@H]3C[C@@H](OCc3c(-c5ccccc5OC(F)(F)F)noc3C3CC3)C4)n2)cn1 [Compound C50, 5-(2-((1R,3r,5S)-3-((5-cyclopropyl-3-(2-(trifluoromethoxy)phenyl)isoxazol-4-yl)methoxy)-8-azabicyclo[3.2.1]octan-8-yl)thiazol-4-yl)picolinic acid] | 31 ± 8 | – | – | 177 | –
